The results in this text go back to patent US4257941A, “Polycyclic nitrogen-containing compounds” (BASF Aktiengesellschaft, priority 1976, dated 1981).

SMILES strings stand for the structures.

Type in all cases: in vivo
For one assay, the system named is spring barley. Description: Stem length, lateral shoots and yield in spring barley (Example 12). The conditions noted are these: for Ear weight relative / No. of lateral shoots relative / Stem length relative: control 100. The protocol:
To examine the effect of the various substances on spring barley up to the maturity stage of the plants, an experiment was carried out in large pots. The plants were grown in quartz sand (fertilized with 2 g N as ammonium nitrate in 3 doses, 1 g P2 O5 as secondary sodium phosphate, 1.5 g K2 O as potassium sulfate, 0.5 g MgO as magnesium sulfate, 10 ml of a solution of trace elements, and 10 mg of iron as an iron complex). […] The treated plants were up to 10% shorter than the control, and yields were also slightly up.

The subject of another assay is soybeans. The experiment in a line: Action on soybeans, hydroponic (Example 17a). The conditions noted are these: for Root dry substance rel. / Root length rel. / Shoot dry substance rel. / Shoot length rel.: control 100. The protocol:
(§1) Young soybean plants grown in quartz sand were transferred to hydroponic treatment in 4 liter vessels and provided with a sufficient supply of nutrient solution and trace elements. The active ingredients were added (0.25 mg/vessel=0.06 ppm; 1.0 mg/vessel=0.25 ppm; 2.5 mg/vessel=0.63 ppm) at a plant height of approx. 22 cm. The plants were in continuous contact with the active ingredients. […] The roots were also shorter, but the plants had more and stronger shoots.
(§2) The action on soybeans, field beans and sunflowers was examined under the same conditions as in Example 16. The shoots and roots of all 3 crop plants were considerably shortened. Whereas in the shoots the dry substance was reduced commensurately with the shortening, the dry substance in the roots rose (particularly in soybeans) as the concentration increased.

The next assay has as its system field beans. Description: Action on field beans, hydroponic (Example 17b). The note with it: for Root dry substance rel. / Root length rel. / Shoot dry substance rel. / Shoot length rel.: control 100. As to the method: as §1, §2
In assay [1] the test system is sunflowers. Description: Action on sunflowers, hydroponic (Example 17c). The note with it: for Root dry substance rel. / Root length rel. / Shoot dry substance rel. / Shoot length rel.: control 100. The protocol: as §1, §2
Another assay relates to cotton. The experiment in a line: Induction of flowering and growth height of cotton, hydroponic (Example 18). The note with it: for Shoot length: 4 weeks; for No. of squares per vessel (3 plants): control 0, average of 3 vessels; for Shoot length rel.: control 100. The protocol: Cotton plants were subjected to hydroponic treatment under the same conditions as in Example 16. The active ingredients were added (1.25 mg/vessel=0.3 ppm and 5 mg/vessel=1.25 ppm) at a height of the plant of 15 to 18 cm. […] The results below are averages from 3 vessels, each of 3 plants.

A further assay concerns rice. The experiment in a line: Action on rice (Example 23). The conditions noted are these: leaf; for Plant height: 66 days; for Plant height relative: control 100. The protocol: At a growth height of 11 to 13 cm the active ingredients were sprayed onto the leaves in the usual manner. The plants were measured after 66 days.
Assay [2] relates to sunflowers. Description: Action on sunflowers (Example 24). The note with it: for Plant height relative: control 100. The text has this: The active ingredients were applied both to the soil and to the leaves.

As to `Clc1ccc(N2N=NC3C4CC(C5N=NC45)C32)cc1` (stereo not drawn) [drawing 377], in the assay on spring barley (0.5 kg/ha), the Ear weight came to 91.5 g, the “No. of lateral shoots” value is listed as 105, the Stem length was 74.1 cm and the Ear weight relative turned out to be 101.2. Also, in the assay on spring barley (0.5 kg/ha), the “No. of lateral shoots relative” value was found to be 112.9 and the Stem length relative is given as 96.4. For the same compound, in the assay with spring barley (1.5 kg/ha), the Ear weight turned out to be 94.8 g, the “No. of lateral shoots” value was found to be 111, the Stem length came out at 69.7 cm and the Ear weight relative was 104.9. Further, in the assay on spring barley (1.5 kg/ha), the “No. of lateral shoots relative” value is on record as 119.4 and the Stem length relative is 90.6.
In the case of `Brc1ccc(N2N=NC3C4CC(C5N=NC45)C32)cc1` (stereo not drawn) [drawing 388], in the assay on soybeans (0.06 ppm), the Root dry substance came out at 1.5 g, the Root length stood at 21.7 cm, the Shoot dry substance is listed as 5.4 g and the Shoot length was 33.0 cm. Moreover, in the assay on soybeans (0.06 ppm), the “Root dry substance rel.” value is recorded as 136.4, the Root length rel. was 75.6, the “Shoot dry substance rel.” value came out at 93.1 and the Shoot length rel. is 89.9. Further, in the assay on soybeans (0.25 ppm), the Root dry substance stood at 1.5 g, the Root length is given as 20.0 cm, the Shoot dry substance was found to be 4.9 g and the Shoot length is on record as 21.7 cm. In the assay with soybeans (0.25 ppm), the “Root dry substance rel.” value turned out to be 136.4, the Root length rel. was 69.7, the “Shoot dry substance rel.” value came out at 84.5 and the Shoot length rel. was 59.1. In addition, in the assay with soybeans (0.63 ppm), the Root dry substance was 2.1 g, the Root length was 20.0 cm, the Shoot dry substance was found to be 3.9 g and the Shoot length is 19.0 cm. Besides, in the assay with soybeans (0.63 ppm), the “Root dry substance rel.” value was 190.9, the Root length rel. is recorded as 69.7, the “Shoot dry substance rel.” value turned out to be 67.2 and the Shoot length rel. is 51.8.
In the assay with field beans (0.06 ppm), `Brc1ccc(N2N=NC3C4CC(C5N=NC45)C32)cc1` (stereo not drawn) [drawing 389] yielded a Root dry substance of 3.8 g, a Root length of 28.3 cm, a Shoot dry substance of 14.5 g and a Shoot length of 69.7 cm. Further, in the assay with field beans (0.06 ppm), the “Root dry substance rel.” value is 63.3, the Root length rel. worked out at 68.5, the “Shoot dry substance rel.” value is 85.8 and the Shoot length rel. is listed as 95.5. In the assay on field beans (0.25 ppm), this compound registered a Root dry substance of 5.3 g, a Root length of 28.3 cm, a Shoot dry substance of 14.5 g and a Shoot length of 67.3 cm. In the assay with field beans (0.25 ppm), the “Root dry substance rel.” value is 85.5, the Root length rel. turned out to be 68.5, the “Shoot dry substance rel.” value is 85.8 and the Shoot length rel. is listed as 92.2. In the assay with field beans (0.63 ppm), this compound gave a Root dry substance of 6.0 g, a Root length of 25.0 cm, a Shoot dry substance of 13.0 g and a Shoot length of 56.7 cm. In addition, in the assay on field beans (0.63 ppm), the “Root dry substance rel.” value is 96.8, the Root length rel. amounted to 60.5, the “Shoot dry substance rel.” value is given as 76.9 and the Shoot length rel. is on record as 77.7.
`Brc1ccc(N2N=NC3C4CC(C5N=NC45)C32)cc1` (stereo not drawn) [drawing 390]: in the assay with sunflowers [1] (0.06 ppm), the Root dry substance was determined as 1.5 g, the Root length is listed as 18.7 cm, the Shoot dry substance is 6.3 g and the Shoot length was 35.0 cm. In addition, in the assay on sunflowers [1] (0.06 ppm), the “Root dry substance rel.” value stood at 100, the Root length rel. turned out to be 93.5, the “Shoot dry substance rel.” value worked out at 98.4 and the Shoot length rel. was 84.7. In addition, in the assay with sunflowers [1] (0.25 ppm), the Root dry substance was 1.4 g, the Root length was 16.7 cm, the Shoot dry substance is 5.3 g and the Shoot length came to 27.3 cm. Moreover, in the assay on sunflowers [1] (0.25 ppm), the “Root dry substance rel.” value is on record as 93.3, the Root length rel. was found to be 83.5, the “Shoot dry substance rel.” value came to 82.8 and the Shoot length rel. came to 66.1. Further, in the assay on sunflowers [1] (0.63 ppm), the Root dry substance stood at 1.6 g, the Root length is recorded as 12.7 cm, the Shoot dry substance turned out to be 5.2 g and the Shoot length came out at 27.3 cm. In the assay on sunflowers [1] (0.63 ppm), the “Root dry substance rel.” value is given as 106.7, the Root length rel. came to 63.5, the “Shoot dry substance rel.” value came to 81.3 and the Shoot length rel. was found to be 66.1.
On to `Clc1ccc(N2N=NC3C4CC(C5N=NC45)C32)cc1` (stereo not drawn) [drawing 391], for which, in the assay with cotton (0.3 ppm), the Shoot length was determined as 40.2 cm, the “No. of squares per vessel (3 plants)” value is on record as 4.0 and the Shoot length rel. amounted to 85.2. Also, in the assay with cotton (1.25 ppm), the Shoot length was 27.8 cm, the “No. of squares per vessel (3 plants)” value is listed as 8.7 and the Shoot length rel. was 58.9.
With `Brc1ccc(N2N=NC3C4CC(C5N=NC45)C32)cc1` (stereo not drawn) [drawing 392], in the assay with cotton (0.3 ppm), the Shoot length is on record as 41.9 cm, the “No. of squares per vessel (3 plants)” value is recorded as 2.6 and the Shoot length rel. was 88.8. Besides, in the assay with cotton (1.25 ppm), the Shoot length was 30.9 cm, the “No. of squares per vessel (3 plants)” value is on record as 8.3 and the Shoot length rel. came out at 65.5.
As for `Clc1ccc(N2N=NC3C4CC(C5N=NC45)C32)cc1` (stereo not drawn) [drawing 404], the Plant height came out at 35.0 cm with rice (1.0 kg/ha), 33.0 cm with rice (2.0 kg/ha), 29.5 cm in the assay with rice (4.0 kg/ha) and 28.5 cm with rice (6.0 kg/ha). Besides, the Plant height relative was found to be 86.2 in the assay with rice (1.0 kg/ha), 81.3 with rice (2.0 kg/ha), 72.7 with rice (4.0 kg/ha) and 70.2 in the assay with rice (6.0 kg/ha).
Consider `Brc1ccc(N2N=NC3C4CC(C5N=NC45)C32)cc1` (stereo not drawn) [drawing 405], for which the Plant height in the assay on rice (1.0 kg/ha) is recorded as 37.0 cm; in the assay on rice (2.0 kg/ha), 37.0 cm; with rice (4.0 kg/ha), 34.5 cm; in the assay on rice (6.0 kg/ha), 33.5 cm. In addition, the Plant height relative in the assay on rice (1.0 kg/ha) amounted to 91.1; in the assay with rice (2.0 kg/ha), 91.1; in the assay with rice (4.0 kg/ha) it was 85.0; with rice (6.0 kg/ha), 82.5.
Turning to `Clc1ccc(N2N=NC3C4CC(C5N=NC45)C32)cc1` (stereo not drawn) [drawing 406], in the assay on sunflowers [2] (soil, 3.0 kg/ha), the Plant height was 26.5 cm and the Plant height relative is 73. Also, in the assay with sunflowers [2] (soil, 12.0 kg/ha), the Plant height came to 15.5 cm and the Plant height relative is 43.
In the assay on sunflowers [2] (soil, 3.0 kg/ha), `Brc1ccc(N2N=NC3C4CC(C5N=NC45)C32)cc1` (stereo not drawn) [drawing 407] yielded a Plant height relative of 84. In the assay with sunflowers [2] (soil, 12.0 kg/ha), the Plant height was determined as 22.5 cm and the Plant height relative was determined as 62.
On to `Clc1ccc(N2N=NC3C4CC(C5N=NC45)C32)cc1` (stereo not drawn) [drawing 408], for which the Plant height relative in the assay with sunflowers [2] (leaf, 1.5 kg/ha) is on record as 78. In the assay on sunflowers [2] (leaf, 6.0 kg/ha), this compound registered a Plant height of 25.5 cm and a Plant height relative of 67.
Consider `Brc1ccc(N2N=NC3C4CC(C5N=NC45)C32)cc1` (stereo not drawn) [drawing 409], for which, in the assay on sunflowers [2] (leaf, 1.5 kg/ha), the Plant height turned out to be 33.0 cm and the Plant height relative was determined as 86. In the assay on sunflowers [2] (leaf, 6.0 kg/ha), this compound came in with a Plant height of 30.0 cm and a Plant height relative of 78.
